Earlier results as cited in patent US20160346171A1, “ORAL COMPOSITION AND CONFECTION” (TEIKYO UNIVERSITY, priority 2015, published 2016).
Where two headings read alike, the source gives them in different places.

Assays:
Candida [1] = conditions: mouse
Candida [2] = conditions: for concentration inhibiting in vitro Candida mycelial growth by 95%: each independently, JP 2013-40156 A

Structure (SMILES)	tongue symptoms (Candida [1]; 19.5 mg/mL solution, three times (50 μL at a time) into the oral cavity, Taguchi Y. et al. 2011)	concentration inhibiting in vitro Candida mycelial growth by 95% (Candida [2])	tongue symptoms (Candida [1]; 1% (=10 mg/mL) solution, three times (50 μL at a time), JP 2013-40156 A)	concentration inhibiting in vitro Candida mycelial growth by 50% (Candida [2]; Inoue S. et al. 2012) [µg/mL]
O=CC=Cc1ccccc1 [cinnamaldehyde]	ameliorated the tongue symptoms			
CC(C)=CCCC(C)=CC=O [citral]		at least 50 μg/mL		
CCCCCCCCCC(=O)O [decanoic acid]		at least 3.13 μg/mL	ameliorated the tongue symptoms	≥ 3.13
C=CCc1ccc(O)c(OC)c1 [eugenol]		at least 200 μg/mL		
CC(C)=CCC/C(C)=C/CO [geraniol]		at least 25 μg/mL		
